Read-outs that look alike come from different tables or passages of the source.
Legend:
Test in all cases: Kinase selectivity profile assay
Assay type in all cases: biochemical
CAMK2d = target: T1, CAMK2d (Homo sapiens, UniProt Q13557); settings: read-out: Residual enzymatic activity
T1 construct: purchased Reaction Biology Corporation
Outline: (§1)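 Radiometric kinase assay run by a standard protocol. Unbound phosphate was removed by washing filters in phosphoric acid, and product radioactivity gave percent remaining kinase activity versus DMSO vehicle reactions. Run in duplicate.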

CDK1/cyclin A = target: T2, CDK1/cyclin A (Homo sapiens, UniProt P06493); settings: 500 nM; relative to DMSO; read-out: Residual enzymatic activity
T2 construct: purchased Reaction Biology Corporation
Outline: as §1

CDK1/cyclin E = target: T3, CDK1/cyclin E (Homo sapiens, UniProt P06493); settings: 500 nM; relative to DMSO; read-out: Residual enzymatic activity
T3 construct: purchased Reaction Biology Corporation
Outline: as §1

CDK2/cyclin E = target: T4, CDK2/cyclin E (Homo sapiens, UniProt P24941); settings: 500 nM; relative to DMSO; read-out: Residual enzymatic activity
T4 construct: purchased Reaction Biology Corporation
Outline: as §1

CDK4/cyclin D3 = target: T5, CDK4/cyclin D3 (Homo sapiens, UniProt P11802); settings: 500 nM; relative to DMSO; read-out: Residual enzymatic activity
T5 construct: purchased Reaction Biology Corporation
Outline: as §1

CLK1 = target: T6, CLK1 (Homo sapiens, UniProt P49759); settings: 500 nM; relative to DMSO; read-out: Residual enzymatic activity
T6 construct: purchased Reaction Biology Corporation
Outline: as §1

EPHA6 = target: T7, EPHA6 (Homo sapiens, UniProt Q9UF33); settings: 500 nM, relative to DMSO; for remaining activity at 0.5 µM: read-out: Residual enzymatic activity
T7 construct: purchased Reaction Biology Corporation
T7 sequence (Q9UF33 23-1036): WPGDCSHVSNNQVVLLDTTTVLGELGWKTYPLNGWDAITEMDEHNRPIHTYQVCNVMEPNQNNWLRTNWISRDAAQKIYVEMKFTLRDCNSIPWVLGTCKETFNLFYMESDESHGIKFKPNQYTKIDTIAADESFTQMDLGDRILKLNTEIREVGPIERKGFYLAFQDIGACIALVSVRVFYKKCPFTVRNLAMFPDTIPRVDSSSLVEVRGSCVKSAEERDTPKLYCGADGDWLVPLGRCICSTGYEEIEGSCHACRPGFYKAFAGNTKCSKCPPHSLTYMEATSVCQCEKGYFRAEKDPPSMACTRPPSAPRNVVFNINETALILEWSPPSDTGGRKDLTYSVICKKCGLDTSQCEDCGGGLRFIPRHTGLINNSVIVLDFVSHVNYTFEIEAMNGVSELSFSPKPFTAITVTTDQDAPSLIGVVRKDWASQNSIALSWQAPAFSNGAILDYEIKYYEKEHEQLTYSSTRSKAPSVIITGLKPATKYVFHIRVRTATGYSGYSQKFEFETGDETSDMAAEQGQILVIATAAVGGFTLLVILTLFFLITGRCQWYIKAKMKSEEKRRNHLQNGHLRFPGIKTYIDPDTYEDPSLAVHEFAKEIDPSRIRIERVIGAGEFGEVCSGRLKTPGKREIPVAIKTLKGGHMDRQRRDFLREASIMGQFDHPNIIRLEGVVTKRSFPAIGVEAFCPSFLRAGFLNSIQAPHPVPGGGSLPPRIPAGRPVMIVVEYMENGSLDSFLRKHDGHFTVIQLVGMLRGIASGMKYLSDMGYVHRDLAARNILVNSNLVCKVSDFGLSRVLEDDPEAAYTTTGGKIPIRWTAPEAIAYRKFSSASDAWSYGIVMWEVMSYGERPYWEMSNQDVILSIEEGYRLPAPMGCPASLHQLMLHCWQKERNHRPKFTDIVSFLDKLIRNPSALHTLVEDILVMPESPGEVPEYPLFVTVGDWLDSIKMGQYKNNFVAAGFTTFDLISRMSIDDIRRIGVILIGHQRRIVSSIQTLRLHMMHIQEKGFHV
Outline: as §1

GRK3 = target: T8, GRK3 (Homo sapiens, UniProt P35626); settings: 500 nM; relative to DMSO; read-out: Residual enzymatic activity
T8 construct: purchased Reaction Biology Corporation
Outline: as §1

GSK3b = target: T9, GSK3b (Homo sapiens, UniProt P49841); settings: 500 nM; relative to DMSO; read-out: Residual enzymatic activity
T9 construct: purchased Reaction Biology Corporation
Outline: as §1

MARK4 = target: T10, MARK4 (Homo sapiens, UniProt Q96L34); settings: 500 nM; relative to DMSO; read-out: Residual enzymatic activity
T10 construct: purchased Reaction Biology Corporation
Outline: as §1

MINK/MINK1 = target: T11, MINK/MINK1 (Homo sapiens, UniProt Q8N4C8); settings: 500 nM; relative to DMSO; read-out: Residual enzymatic activity
T11 construct: purchased Reaction Biology Corporation
Outline: as §1

MLK2/MAP3K10 = target: T12, MLK2/MAP3K10 (Homo sapiens, UniProt Q02779); settings: for remaining activity at 0.5 µM: 500 nM, relative to DMSO, read-out: Residual enzymatic activity
T12 construct: purchased Reaction Biology Corporation (assay service)
Outline: as §1

MNK2 = target: T13, MNK2 (Homo sapiens, UniProt Q9HBH9); settings: 500 nM; relative to DMSO; read-out: Residual enzymatic activity
T13 construct: purchased Reaction Biology Corporation
Outline: as §1

NEK4 = target: T14, NEK4 (Homo sapiens, UniProt P51957); settings: 500 nM; relative to DMSO; read-out: Residual enzymatic activity
T14 construct: purchased Reaction Biology Corporation
Outline: as §1

OSR1/OXSR1 = target: T15, OSR1/OXSR1 (Homo sapiens, UniProt O95747); settings: 500 nM; relative to DMSO; read-out: Residual enzymatic activity
T15 construct: purchased Reaction Biology Corporation
Outline: as §1

PKCb1 = target: T16, PKCb1 (Homo sapiens, UniProt P05771); settings: 500 nM; relative to DMSO; read-out: Residual enzymatic activity
T16 construct: purchased Reaction Biology Corporation
Outline: as §1

PKCmu/PRKD1 = target: T17, PKCmu/PRKD1 (Homo sapiens, UniProt Q15139); settings: 500 nM; relative to DMSO; read-out: Residual enzymatic activity
T17 construct: purchased Reaction Biology Corporation
Outline: as §1

PKCzeta = target: T18, PKCzeta (Homo sapiens, UniProt Q05513); settings: read-out: Residual enzymatic activity
T18 construct: purchased Reaction Biology Corporation
Outline: as §1

RON/MST1R = target: T19, RON/MST1R (Homo sapiens, UniProt Q04912); settings: 500 nM; relative to DMSO; read-out: Residual enzymatic activity
T19 construct: purchased Reaction Biology Corporation
Outline: as §1

RSK4 = target: T20, RSK4 (Homo sapiens, UniProt Q9UK32); settings: 500 nM; relative to DMSO; read-out: Residual enzymatic activity
T20 construct: purchased Reaction Biology Corporation
Outline: as §1

STK33 = target: T21, STK33 (Homo sapiens, UniProt Q9BYT3); settings: 500 nM; relative to DMSO; read-out: Residual enzymatic activity
T21 construct: purchased Reaction Biology Corporation
Outline: as §1

STK39/STLK3 = target: T22, STK39/STLK3 (Homo sapiens, UniProt Q9UEW8); settings: 500 nM; relative to DMSO; read-out: Residual enzymatic activity
T22 construct: purchased Reaction Biology Corporation
Outline: as §1

TAOK1 = target: T23, TAOK1 (Homo sapiens, UniProt Q7L7X3); settings: 500 nM; relative to DMSO; read-out: Residual enzymatic activity
T23 construct: purchased Reaction Biology Corporation
Outline: as §1

TBK1 = target: T24, TBK1 (Homo sapiens, UniProt Q9UHD2); settings: 500 nM; relative to DMSO; read-out: Residual enzymatic activity
T24 construct: purchased Reaction Biology Corporation
Outline: as §1

TEC = target: T25, TEC (Homo sapiens, UniProt P42680); settings: 500 nM; relative to DMSO; read-out: Residual enzymatic activity
T25 construct: purchased Reaction Biology Corporation
Outline: as §1

TYRO3/SKY = target: T26, TYRO3/SKY (Homo sapiens, UniProt Q06418); settings: 500 nM; relative to DMSO; read-out: Residual enzymatic activity
T26 construct: purchased Reaction Biology Corporation
Outline: as §1

T12 sequence (Q02779 whole entry): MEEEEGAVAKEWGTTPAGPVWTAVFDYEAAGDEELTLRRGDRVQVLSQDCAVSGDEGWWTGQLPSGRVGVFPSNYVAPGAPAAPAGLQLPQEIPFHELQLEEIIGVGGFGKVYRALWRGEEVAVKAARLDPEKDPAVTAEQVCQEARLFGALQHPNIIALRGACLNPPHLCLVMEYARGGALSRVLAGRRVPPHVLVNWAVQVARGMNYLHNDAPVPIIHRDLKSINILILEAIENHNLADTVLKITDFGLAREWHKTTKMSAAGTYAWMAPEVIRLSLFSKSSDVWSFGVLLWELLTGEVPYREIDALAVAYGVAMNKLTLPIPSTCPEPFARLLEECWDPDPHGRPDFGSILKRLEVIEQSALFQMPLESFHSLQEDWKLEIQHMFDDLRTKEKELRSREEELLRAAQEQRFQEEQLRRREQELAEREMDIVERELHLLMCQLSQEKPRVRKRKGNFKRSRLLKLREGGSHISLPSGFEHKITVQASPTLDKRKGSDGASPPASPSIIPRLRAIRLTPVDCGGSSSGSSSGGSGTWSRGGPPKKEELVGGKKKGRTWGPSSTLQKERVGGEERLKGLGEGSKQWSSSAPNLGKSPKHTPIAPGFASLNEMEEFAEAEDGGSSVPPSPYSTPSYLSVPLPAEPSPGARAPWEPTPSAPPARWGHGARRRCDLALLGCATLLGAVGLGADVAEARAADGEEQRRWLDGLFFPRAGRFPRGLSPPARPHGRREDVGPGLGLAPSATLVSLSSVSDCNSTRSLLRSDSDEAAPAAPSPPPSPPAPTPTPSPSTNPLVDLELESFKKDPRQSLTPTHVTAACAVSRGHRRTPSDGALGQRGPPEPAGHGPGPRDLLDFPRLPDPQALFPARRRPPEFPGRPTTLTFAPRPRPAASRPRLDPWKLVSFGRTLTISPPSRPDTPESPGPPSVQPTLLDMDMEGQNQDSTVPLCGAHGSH
T13 sequence (Q9HBH9 whole entry): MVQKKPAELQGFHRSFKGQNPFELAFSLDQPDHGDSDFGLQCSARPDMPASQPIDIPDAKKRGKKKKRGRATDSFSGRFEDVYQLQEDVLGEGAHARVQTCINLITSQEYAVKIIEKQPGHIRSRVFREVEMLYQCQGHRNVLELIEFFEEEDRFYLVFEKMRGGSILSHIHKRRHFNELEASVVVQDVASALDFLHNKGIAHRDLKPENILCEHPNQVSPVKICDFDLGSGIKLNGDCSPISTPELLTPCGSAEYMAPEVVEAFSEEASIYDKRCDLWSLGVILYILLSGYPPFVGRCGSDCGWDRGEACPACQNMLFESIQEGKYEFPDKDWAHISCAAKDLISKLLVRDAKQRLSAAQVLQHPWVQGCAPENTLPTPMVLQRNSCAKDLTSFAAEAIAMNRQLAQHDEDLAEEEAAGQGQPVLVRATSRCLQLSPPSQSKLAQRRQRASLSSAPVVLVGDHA
T11 sequence (Q8N4C8 whole entry): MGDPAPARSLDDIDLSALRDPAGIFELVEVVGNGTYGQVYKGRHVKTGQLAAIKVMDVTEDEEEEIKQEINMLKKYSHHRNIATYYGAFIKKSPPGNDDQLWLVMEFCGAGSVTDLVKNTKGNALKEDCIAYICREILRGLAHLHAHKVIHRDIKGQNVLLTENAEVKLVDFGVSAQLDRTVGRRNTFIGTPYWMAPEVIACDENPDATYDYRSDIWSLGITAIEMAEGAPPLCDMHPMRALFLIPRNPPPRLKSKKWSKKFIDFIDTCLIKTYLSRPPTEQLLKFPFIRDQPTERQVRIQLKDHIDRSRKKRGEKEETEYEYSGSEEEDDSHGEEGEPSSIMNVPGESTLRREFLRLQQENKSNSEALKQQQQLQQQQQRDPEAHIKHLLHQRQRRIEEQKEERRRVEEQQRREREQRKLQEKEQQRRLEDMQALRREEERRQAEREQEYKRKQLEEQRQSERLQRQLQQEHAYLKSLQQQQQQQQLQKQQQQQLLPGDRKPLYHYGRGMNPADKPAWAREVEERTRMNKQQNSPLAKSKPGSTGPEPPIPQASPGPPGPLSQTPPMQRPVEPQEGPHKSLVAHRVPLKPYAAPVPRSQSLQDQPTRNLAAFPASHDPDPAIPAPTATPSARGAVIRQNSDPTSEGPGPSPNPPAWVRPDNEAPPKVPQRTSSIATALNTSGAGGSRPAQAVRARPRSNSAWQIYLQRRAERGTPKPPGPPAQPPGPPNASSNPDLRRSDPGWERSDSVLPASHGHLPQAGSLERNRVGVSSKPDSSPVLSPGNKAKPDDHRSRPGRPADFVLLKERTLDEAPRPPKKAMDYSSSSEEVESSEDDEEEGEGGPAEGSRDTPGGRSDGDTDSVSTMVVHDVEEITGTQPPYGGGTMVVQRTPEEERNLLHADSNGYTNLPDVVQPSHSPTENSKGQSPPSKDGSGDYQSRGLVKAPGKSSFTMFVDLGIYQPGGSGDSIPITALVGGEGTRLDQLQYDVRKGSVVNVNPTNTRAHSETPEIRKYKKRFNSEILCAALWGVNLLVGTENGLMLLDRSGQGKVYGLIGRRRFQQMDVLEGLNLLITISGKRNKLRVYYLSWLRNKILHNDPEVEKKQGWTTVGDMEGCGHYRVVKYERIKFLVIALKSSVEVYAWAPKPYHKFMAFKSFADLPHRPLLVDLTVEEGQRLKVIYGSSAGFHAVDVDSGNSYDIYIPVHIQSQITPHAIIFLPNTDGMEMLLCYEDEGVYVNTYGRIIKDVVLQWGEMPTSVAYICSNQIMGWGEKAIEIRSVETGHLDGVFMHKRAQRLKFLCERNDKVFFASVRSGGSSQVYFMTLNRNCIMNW
T21 sequence (Q9BYT3 whole entry): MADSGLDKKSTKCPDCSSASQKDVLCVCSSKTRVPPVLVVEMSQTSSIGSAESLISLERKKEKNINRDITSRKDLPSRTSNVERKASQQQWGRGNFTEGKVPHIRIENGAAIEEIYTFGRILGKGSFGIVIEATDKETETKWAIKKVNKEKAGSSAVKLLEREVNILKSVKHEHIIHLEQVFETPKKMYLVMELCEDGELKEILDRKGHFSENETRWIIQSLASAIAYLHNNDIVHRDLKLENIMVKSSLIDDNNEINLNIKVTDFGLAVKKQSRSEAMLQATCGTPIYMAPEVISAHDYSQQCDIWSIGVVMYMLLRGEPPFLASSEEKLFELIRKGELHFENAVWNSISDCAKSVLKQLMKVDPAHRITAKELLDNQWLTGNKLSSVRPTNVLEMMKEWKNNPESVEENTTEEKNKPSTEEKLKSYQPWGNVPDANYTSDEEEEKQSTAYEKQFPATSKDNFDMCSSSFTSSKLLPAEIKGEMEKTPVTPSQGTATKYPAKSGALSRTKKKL
T8 sequence (P35626 whole entry): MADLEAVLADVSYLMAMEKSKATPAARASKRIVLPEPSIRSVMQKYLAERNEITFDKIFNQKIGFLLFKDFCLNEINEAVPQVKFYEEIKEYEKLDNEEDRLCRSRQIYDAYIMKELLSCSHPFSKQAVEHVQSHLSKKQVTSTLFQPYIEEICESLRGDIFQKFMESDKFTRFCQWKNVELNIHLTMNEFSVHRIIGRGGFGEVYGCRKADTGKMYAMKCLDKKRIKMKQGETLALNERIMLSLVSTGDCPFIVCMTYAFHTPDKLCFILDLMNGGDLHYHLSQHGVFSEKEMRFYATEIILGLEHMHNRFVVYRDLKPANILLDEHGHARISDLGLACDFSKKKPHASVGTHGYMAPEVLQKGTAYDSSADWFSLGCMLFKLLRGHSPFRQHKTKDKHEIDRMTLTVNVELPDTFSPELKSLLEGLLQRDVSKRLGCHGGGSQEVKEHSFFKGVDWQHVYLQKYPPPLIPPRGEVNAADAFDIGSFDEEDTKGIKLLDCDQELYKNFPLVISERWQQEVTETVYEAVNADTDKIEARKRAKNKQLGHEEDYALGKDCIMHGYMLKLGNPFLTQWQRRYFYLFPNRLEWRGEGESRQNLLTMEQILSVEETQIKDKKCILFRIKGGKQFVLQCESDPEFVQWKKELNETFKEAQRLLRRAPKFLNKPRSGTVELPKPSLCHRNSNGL
T1 sequence (Q13557 whole entry): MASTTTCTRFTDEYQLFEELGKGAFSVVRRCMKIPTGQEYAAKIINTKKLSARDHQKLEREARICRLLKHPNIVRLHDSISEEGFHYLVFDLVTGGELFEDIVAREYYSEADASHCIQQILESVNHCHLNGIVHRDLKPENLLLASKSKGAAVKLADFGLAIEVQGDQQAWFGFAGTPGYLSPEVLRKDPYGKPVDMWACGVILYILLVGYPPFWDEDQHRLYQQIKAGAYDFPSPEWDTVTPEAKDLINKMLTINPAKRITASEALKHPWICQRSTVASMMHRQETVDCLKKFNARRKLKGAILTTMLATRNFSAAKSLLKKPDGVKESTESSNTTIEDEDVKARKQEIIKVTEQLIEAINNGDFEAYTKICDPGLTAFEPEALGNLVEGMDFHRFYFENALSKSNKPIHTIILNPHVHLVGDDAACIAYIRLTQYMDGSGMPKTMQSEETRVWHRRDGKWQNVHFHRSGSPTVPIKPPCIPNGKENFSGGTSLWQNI
T18 sequence (Q05513 whole entry): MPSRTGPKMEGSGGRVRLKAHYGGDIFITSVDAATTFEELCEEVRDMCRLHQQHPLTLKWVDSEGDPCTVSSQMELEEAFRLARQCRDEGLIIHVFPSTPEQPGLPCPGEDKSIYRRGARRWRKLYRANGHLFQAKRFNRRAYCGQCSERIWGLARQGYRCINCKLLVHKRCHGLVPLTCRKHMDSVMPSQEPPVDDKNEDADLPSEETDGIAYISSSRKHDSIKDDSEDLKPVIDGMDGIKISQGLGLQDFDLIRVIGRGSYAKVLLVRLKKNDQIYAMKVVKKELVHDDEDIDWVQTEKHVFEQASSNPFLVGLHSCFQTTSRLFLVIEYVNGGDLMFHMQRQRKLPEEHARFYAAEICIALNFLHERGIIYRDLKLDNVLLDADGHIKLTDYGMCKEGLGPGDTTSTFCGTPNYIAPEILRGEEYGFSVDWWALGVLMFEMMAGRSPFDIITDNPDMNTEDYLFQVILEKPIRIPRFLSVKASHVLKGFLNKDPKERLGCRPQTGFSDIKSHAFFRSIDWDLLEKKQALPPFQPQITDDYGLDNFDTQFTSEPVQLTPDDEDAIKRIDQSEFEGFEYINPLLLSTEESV

| Compound | remaining activity at 0.5 µM (CDK1/cyclin A) | remaining activity at 0.5 µM (CDK1/cyclin E) | remaining activity at 0.5 µM (CDK2/cyclin E) | remaining activity at 0.5 µM (CDK4/cyclin D3) | remaining activity at 0.5 µM (CLK1) | remaining activity at 0.5 µM (EPHA6) | remaining activity at 0.5 µM (GRK3) | remaining activity at 0.5 µM (GSK3b) | remaining activity at 0.5 µM (MARK4) | remaining activity at 0.5 µM (MINK/MINK1) | remaining activity at 0.5 µM (MLK2/MAP3K10) | remaining activity at 0.5 µM (MNK2) | remaining activity at 0.5 µM (NEK4) | remaining activity at 0.5 µM (OSR1/OXSR1) | remaining activity at 0.5 µM (PKCb1) | remaining activity at 0.5 µM (PKCmu/PRKD1) | remaining activity at 0.5 µM (RON/MST1R) | remaining activity at 0.5 µM (RSK4) | remaining activity at 0.5 µM (STK33) | remaining activity at 0.5 µM (STK39/STLK3) | other results |
| --- | --- | --- | --- | --- | --- | --- | --- | --- | --- | --- | --- | --- | --- | --- | --- | --- | --- | --- | --- | --- | --- |
| COc1cc(Nc2ncnc(Nc3cc4c(cn3)NC(=O)C(C)(C)O4)n2)cc(OC)c1OC [MT-SYK-03] | 110% | 94.6% | 82.1% | 100% | 90.4% | > 54% | 103% | 82.4% | 92.1% | 92% | 7.5% | 78.6% | 109% | 98.2% | 104% | 98.5% | 98.4% | 99.7% | 70.5% | 107% | remaining activity at 0.5 µM (CAMK2d): 104%; Residual enzymatic activity (EPHA6): 73.9%; IC50 (MLK2/MAP3K10; 10-dose mode, threefold serial dilution from 10 μM): 4.3 nM; inhibition at 0.5 µM (MLK2/MAP3K10; read-out: Inhibition at 500 nM): > 90%; remaining activity at 0.5 µM (PKCzeta; 500 nM, relative to DMSO): 109%; remaining activity at 0.5 µM (TAOK1): 102%; remaining activity at 0.5 µM (TBK1): 66.8%; remaining activity at 0.5 µM (TEC): 71%; remaining activity at 0.5 µM (TYRO3/SKY): 104% |
| COc1cc(Nc2ncc(F)c(Nc3ccc4c(n3)NC(=O)C(C)(C)O4)n2)cc(OC)c1OC [R406, reference compound] | 74.2% | 76.5% | 60% | 99.6% | 61.7% | 24.9% | 102% | 37.9% | 46.7% | 87.3% | 1.1% | 37.9% | 52.1% | 97.2% | 63% | 82.1% | 47.9% | 45.6% | 41.5% | 107% | remaining activity at 0.5 µM (CAMK2d; 500 nM, relative to DMSO): 98.9%; remaining activity at 0.5 µM (PKCzeta): 105%; remaining activity at 0.5 µM (TAOK1): 78.1%; remaining activity at 0.5 µM (TBK1): 13.9%; remaining activity at 0.5 µM (TEC): 39.4%; remaining activity at 0.5 µM (TYRO3/SKY): 94.6% |

Source: PMC8632988, “Inhibition of SYK and cSrc kinases can protect bone and cartilage in preclinical models of osteoarthritis and rheumatoid arthritis” (Scientific Reports, 2021)
